Reference: US20250248979A1, “NOVEL GPX4 INHIBITORS AND USES THEREOF” (THE TRUSTEES OF COLUMBIA UNIVERSITY IN THE CITY OF NEW YORK, priority 2022, published 2025)
In brackets after ≈: the same amount, converted by molar mass. Where two headings read alike, the source gives them in different places. Each block holds one molecule with its values, some of them ahead of it.

Tests used:
in vitro [1] = assay type: in vitro ADME, human; settings: human, microsomes
Method: (§1) […]. The incubation timepoints measured were 0, 5, 10, 15, 30, and 45 minutes. All samples were prepared in duplicate and analyzed by LC-MS/MS.

in vitro [2] = assay type: in vitro ADME, mouse; settings: mouse, microsomes
Method: as §1

[3] = Kinetic aqueous solubility
GPX4 = biological target: T1, GPX4 (Homo sapiens, UniProt P36969); assay: GPX4 activity assay in cell lysates (NADPH-coupled); assay type: biochemical; parameters: endogenous in cells; host or cells: A-673 cell lysate; settings: for GPX4% inhibition at 200 (μM) / GPX4 inhibition: 200 μM
T1 sequence (P36969 1-170 isoform P36969-2): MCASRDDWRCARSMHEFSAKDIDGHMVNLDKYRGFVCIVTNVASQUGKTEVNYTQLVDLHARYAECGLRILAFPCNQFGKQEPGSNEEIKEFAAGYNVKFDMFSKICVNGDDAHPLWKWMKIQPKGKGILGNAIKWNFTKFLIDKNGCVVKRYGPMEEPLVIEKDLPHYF
How it was run: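 Native GPX4 in lysates of A-673 cells grown with 20 nM sodium selenite; lysate preincubated with compound 45 min at 37 °C in pH 8.0 buffer with 3 mM GSH, 0.5 mM NADPH and glutathione reductase. Reaction started with phosphatidylcholine hydroperoxide; NADPH consumption followed at 340 nm over 25 min; triplicates.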

HT-1080 cells = assay: Cellular dose response assay, HT-1080 with and without Fer-1; assay type: cell-based, human
How it was run: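 1500 cells/well, o/n; 12-pt 2-fold dilns, ±Fer-1 (HT-1080), 0.4% DMSO, n=3 technical; 48 h, 37 °C/5% CO2; CellTiter-Glo lum. Huh7, HLF, HT-1080 grown in DMEM/10% HI-FBS; SK-HEP-1 in EMEM/10% HI-FBS.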

HepG2 cells = assay: Cellular dose response assay, HepG2; assay type: cell-based, human
From the text: (§2) HT-1080 (human [Homo sapiens] […] fibrosarcoma), A-673 (human [Homo sapiens] […] Ewing's sarcoma), and SK-HEP-1 (human [Homo sapiens] […] hepatic adenocarcinoma), cells were obtained from ATCC. Huh7 (human [Homo sapiens] […] hepatocellular carcinoma), HLF (human [Homo sapiens] […] hepatocellular carcinoma), HepG2 (human [Homo sapiens] […] hepatocellular carcinoma), cells were obtained from the Cancer Cell Bank at Columbia University Irving Medical Center. HT-1080, A-673, Huh-7, and HLF cells were grown in Dulbecco's Modified Eagle Medium (DMEM) supplemented with 10% heat inactivated fetal bovine serum (HI-FBS), 1% non-essential amino acids, and 1% penicillin streptomycin. HepG2 and SK-HEP-1 cells were grown in Eagle's Minimum Essential Medium (EMEM) supplemented with 10% HI-FBS, and 1% penicillin-streptomycin. All cells were cultured at 37° C. and 5% CO2.
(§3) HT-1080, HepG2, Huh7, HLF, and SK-HEP-1 cells were seeded into opaque white 384-well plates at 1500 cells per well then incubated at 37° C. with 5% CO2 overnight. The next day, compounds of interest were dissolved in DMSO and 12-point 2-fold dilution series were prepared with and without Fer-1. Cells were treated in triplicate (final DMSO concentration of 0.4% in all wells, including DMSO-only control wells) and incubated for a further 48 hours at 37° C. and 5% CO2. Cell viability was evaluated using CellTiter-Glo (Promega G7573) and luminescence was recorded on a Victor 5 plate reader. Data were analyzed in GraphPad Prism 9 and error bars represent standard deviation values for three technical replicates in a representative experiment.

Huh7 cells = assay: Cellular dose response assay, Huh7; assay type: cell-based, human; settings: Table 7
From the text: as §2, §3

HLF cells = assay: Cellular dose response assay, HLF; assay type: cell-based, human; settings: Table 7
From the text: as §2, §3

SK-HEP-1 cells = assay: Cellular dose response assay, SK-HEP-1; assay type: cell-based, human; settings: Table 7
From the text: as §2, §3

[4] = 1% DMSO, Phosphate Buffered Saline pH 7.4, 1 hour, ambient, UV/Vis absorbance
[5] = generation 1, mean ± s.d., n = 3
[6] = compounds alone, Table 7, read-out: IC50 (uM) HT1080^a
[7] = with fer-1, Table 7, read-out: IC50 (uM) HT1080^b
[8] = compounds alone, Table 7, read-out: IC50 (uM) HEPG2^a
[9] = with fer-1, Table 7, read-out: IC50 (uM) HEPG2^b
[10] = compounds alone, read-out: IC50 (uM) Huh7^a
[11] = with fer-1, read-out: IC50 (uM) Huh7^b
[12] = compounds alone, read-out: IC50 (uM) HLF^a
[13] = with fer-1, read-out: IC50 (uM) HLF^b
[14] = compounds alone, read-out: IC50 (uM) SKHEP1^a
[15] = with fer-1, read-out: IC50 (uM) SKHEP1^b

Compound: CC(C)(COC(=O)CBr)NC(=O)c1cc2cc([N+](=O)[O-])ccc2[nH]1 [QW-171]
Microsome Stability t1/2 (min) human (in vitro [1]): 187 min | Microsome Stability t1/2 (min) mouse (in vitro [2]): 283 min | Solubility ([3]; aqueous solubility, Table 9): 56 µM (≈ 22.3 µg/mL) | GPX4% inhibition at 200 (μM) (GPX4; [5]): 83.9 ± 16.8%

Compound: Cn1nc(C(=O)NC(C)(C)COC(=O)CCl)c2ccc(-c3cccc(Cl)c3)cc21 [QW-458]
IC50 (HT-1080 cells; HT1080 + Fer-1, read-out: IC50 (uM) HT1080 + Fer-1): 24 µM | IC50 (HT-1080 cells; HT1080, without Fer-1, read-out: IC50 (uM) HT1080): 2 µM | Selectivity (HT-1080 cells; ferroptosis selectivity, HT1080 + Fer-1 vs HT1080): 12 | Microsome Stability t1/2 (min) human (in vitro [1]): 1.9 min | Microsome Stability t1/2 (min) mouse (in vitro [2]): 1.9 min | Solubility [3, 4]: 6.1 µM (≈ 2.65 µg/mL) | Solubility ([3]; aqueous solubility, Table 9): 6.1 µM (≈ 2.65 µg/mL) | GPX4% inhibition at 5 μM (GPX4): 80.5 ± 3.0%

Compound: CC(C)(COC(=O)CCl)NC(=O)c1c[nH]c2cc(Br)ccc12 [QW-316]
Microsome Stability t1/2 (min) human (in vitro [1]): 24 min | Microsome Stability t1/2 (min) mouse (in vitro [2]): 6 min | Solubility ([3]; aqueous solubility, Table 9): 71 µM (≈ 27.5 µg/mL) | GPX4% inhibition at 200 (μM) (GPX4; [5]): 87.2 ± 9.2%

Compound: O=C(Nc1c[nH]c2ccccc12)n1ccnc1 [QW-065]
IC50 (HT-1080 cells; compounds alone, read-out: IC50 (μM) HT1080^a): > 400 µM | IC50 (HT-1080 cells; compounds and fer-1 1.0 μM, read-out: IC50 (μM) HT1080^b): > 400 µM | IC50 (HepG2 cells; compounds alone, read-out: IC50 (μM) HEPG2^a): > 400 µM | IC50 (HepG2 cells; compounds and fer-1 1.0 μM, read-out: IC50 (μM) HEPG2^b): > 400 µM | GPX4% inhibition at 200 (μM) (GPX4; mean ± s.d., n = 3): 32.4 ± 2.4%

Results, then the molecule that gave them:

Microsome Stability t1/2 (min) human (in vitro [1]): 1.8 min | Microsome Stability t1/2 (min) mouse (in vitro [2]): 1.1 min | Solubility [3, 4]: 5.4 µM (≈ 2.4 µg/mL) | Solubility ([3]; aqueous solubility, Table 9): 5.4 µM (≈ 2.4 µg/mL) | GPX4% inhibition at 5 μM (GPX4): 87.3 ± 3.3%
Compound: COc1ccc(-c2ccc3c(C(=O)NC(C)(C)COC(=O)CCl)nn(C)c3c2)cc1C [QW-488]

IC50 (HT-1080 cells; [6]): 9.1 µM | IC50 (HT-1080 cells; [7]): 40.1 µM | IC50 (HepG2 cells; [8]): 9.2 µM | IC50 (HepG2 cells; [9]): 55.7 µM | IC50 (Huh7 cells; [10]): 3.5 µM | IC50 (Huh7 cells; [11]): 58.7 µM | IC50 (HLF cells; [12]): 2.9 µM | IC50 (HLF cells; [13]): 36.4 µM | IC50 (SK-HEP-1 cells; [14]): 3.8 µM | IC50 (SK-HEP-1 cells; [15]): 50 µM | GPX4 inhibition (GPX4): complete inhibition | GPX4% inhibition at 200 (μM) (GPX4; generation 2): 104.8 ± 1.9%
Compound: CC(C)(COC(=O)CCl)NC(=O)c1nn(-c2ccccc2)c2ccccc12 [QW-357]

IC50 (HT-1080 cells; [6]): 4 µM | IC50 (HT-1080 cells; [7]): 6.1 µM | IC50 (HepG2 cells; [8]): 4.7 µM | IC50 (HepG2 cells; [9]): 12.7 µM | IC50 (Huh7 cells; [10]): 6.3 µM | IC50 (Huh7 cells; [11]): 16.8 µM | IC50 (HLF cells; [12]): 2.5 µM | IC50 (HLF cells; [13]): 5.7 µM | IC50 (SK-HEP-1 cells; [14]): 5.1 µM | IC50 (SK-HEP-1 cells; [15]): 17.1 µM | GPX4% inhibition at 200 (μM) (GPX4; [5]): 88.7 ± 2.3%
Compound: COc1ccc2cc(C(=O)NCC(C)(C)COC(=O)CBr)[nH]c2c1 [QW-303]

IC50 (HT-1080 cells; [6]): 8.5 µM | IC50 (HT-1080 cells; [7]): 26 µM | IC50 (HepG2 cells; [8]): 7.5 µM | IC50 (HepG2 cells; [9]): 27.3 µM | IC50 (Huh7 cells; [10]): 4.5 µM | IC50 (Huh7 cells; [11]): 32.4 µM | IC50 (HLF cells; [12]): 4.1 µM | IC50 (HLF cells; [13]): 27.8 µM | IC50 (SK-HEP-1 cells; [14]): 3.9 µM | IC50 (SK-HEP-1 cells; [15]): 32.7 µM | GPX4% inhibition at 200 (μM) (GPX4; [5]): 99.6 ± 3.2%
Compound: CC(C)(COC(=O)CCl)NC(=O)c1[nH]c2ccccc2c1Br [QW-348]

IC50 (HT-1080 cells; [6]): 5.4 µM | IC50 (HT-1080 cells; [7]): 76.3 µM | IC50 (HepG2 cells; [8]): 26.2 µM | IC50 (HepG2 cells; [9]): 180 µM | IC50 (Huh7 cells; [10]): 4.2 µM | IC50 (Huh7 cells; [11]): 122 µM | IC50 (HLF cells; [12]): 2.5 µM | IC50 (HLF cells; [13]): 58.1 µM | IC50 (SK-HEP-1 cells; [14]): 28.4 µM | IC50 (SK-HEP-1 cells; [15]): 202 µM | Microsome Stability t1/2 (min) human (in vitro [1]): 2.9 min | Microsome Stability t1/2 (min) mouse (in vitro [2]): 1.7 min | Solubility ([3]; aqueous solubility, Table 9): 98 µM (≈ 31.7 µg/mL) | GPX4% inhibition at 20 (μM) (GPX4; 20 μM, generation 2): 72.5 ± 6.7% | GPX4 inhibition (GPX4): complete inhibition | GPX4% inhibition at 200 (μM) (GPX4; generation 2): 95.8 ± 4.0%
Compound: Cn1nc(C(=O)NC(C)(C)COC(=O)CCl)c2ccccc21 [QW-312]
